Test results taken from the supplement of paper PMC9334596.
Counter-ions that a name gives are not always drawn.

System: mPer2Luc MEF
Assay: PER2::LUC luminescence relative to vehicle control (fold of vehicle); higher = higher PER2::LUC reporter signal
Procedure: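 Secondary dose-response validation of 72 circadian-modulating compounds in mPer2Luc MEFs, threefold dilution series of six doses from 10 uM down to 0.04 uM. PER2::LUC luminescence read at 24 h and 30 h after treatment, normalised to vehicle (DMSO) control.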

[1] = time after treatment: 24-hour, concentration: 0.04μM
[2] = time after treatment: 24-hour, concentration: 0.37μM
[3] = time after treatment: 24-hour, concentration: 3.33μM
[4] = time after treatment: 24-hour, concentration: 10μM
[5] = time after treatment: 30-hour, concentration: 0.04μM
[6] = time after treatment: 30-hour, concentration: 0.37μM
[7] = time after treatment: 30-hour, concentration: 3.33μM
[8] = time after treatment: 30-hour, concentration: 10μM

Row | Structure (SMILES) | PER2::LUC luminescence [1] | PER2::LUC luminescence [2] | PER2::LUC luminescence [3] | PER2::LUC luminescence [4] | PER2::LUC luminescence [5] | PER2::LUC luminescence [6] | PER2::LUC luminescence [7] | PER2::LUC luminescence [8]
1 | CCc1cc2c(cc1N1CCC(N3CCOCC3)CC1)C(C)(C)c1[nH]c3cc(C#N)ccc3c1C2=O | 0.92 | 0.909 | 0.957 | 0.902 | 0.817 | 0.859 | 0.859 | 0.83
2 | O=C1c2ccccc2C(=O)c2oc(-c3ccccc3)nc21 [SJB2-043] | 1.11 | 1.29 | 1.94 | 1.65 | 1.17 | 1.2 | 1.36 | 1.11
3 | Cc1ccc(NC(=O)Nc2cc(C(F)(F)F)ccc2F)cc1Nc1ccc2c(c1)NC(=O)/C2=C\c1ccc[nH]1 [GNF-5837] | 1.07 | 1.06 | 1.15 | 0.539 | 1.05 | 1.05 | 1.2 | 0.751
4 | O=c1sn(-c2cccc3ccccc23)c(=O)n1Cc1ccccc1 [Tideglusib] | 0.908 | 0.902 | 0.864 | 0.879 | 0.9 | 0.856 | 0.886 | 0.891
5 | O=C(/C=C/c1cccnc1)NCCCCC1CCN(C(=O)c2ccccc2)CC1 [FK866] | 0.987 | 1.02 | 0.955 | 0.89 | 0.67 | 0.643 | 0.595 | 0.49
6 | Cn1cc(/C=C/C(=O)c2cccc(F)c2)cc1/C=C/C(=O)NO [MC1568] | 0.933 | 0.956 | 0.979 | 1.34 | 0.907 | 0.894 | 0.843 | 1.04
7 | COc1cc(NS(C)(=O)=O)ccc1Nc1c2ccccc2nc2ccccc12 [Amsacrine] | 0.726 | 0.768 | 0.663 | 0.603 | 0.43 | 0.474 | 0.379 | 0.285
8 | NCC(=O)N1C[C@H](NC(=O)c2ccccc2)C[C@H]1C(=O)O [GAP-134 (Hydrochloride)] | 0.994 | 0.988 | 1.05 | 1.04 | 1.04 | 1.04 | 1.06 | 1.02
9 | Nc1nc(N)c2nc(-c3cccc(O)c3)cnc2n1 | 0.893 | 0.833 | 0.854 | 0.608 | 0.829 | 0.88 | 0.803 | 0.578
10 | COc1ccccc1-c1cc(Nc2cccc(CS(N)(=O)=O)c2)ncn1 | 0.961 | 0.968 | 0.971 | 0.804 | 0.841 | 0.933 | 0.964 | 0.982
11 | CCCCN(CCCC)C(=O)CN1C[C@H](c2ccc3c(c2)OCO3)[C@@H](C(=O)O)[C@@H]1c1ccc(OC)cc1 [ATRASENTAN] | 1.16 | 1.17 | 1.5 | 2.41 | 1.19 | 1.16 | 1.47 | 2.31
12 | CN1CCN(c2nc3ccccc3nc2Cl)CC1 | 1 | 1.02 | 1.02 | 0.958 | 1.04 | 1.05 | 1.04 | 0.971
13 | CCc1nc(-c2cccc(C)c2)c(-c2ccnc(NC(=O)c3ccccc3)c2)s1 [TAK 715] | 0.993 | 0.95 | 0.955 | 0.895 | 0.926 | 0.929 | 0.924 | 0.888
14 | O=C(Cc1ccc(-c2ccc(OCCN3CCOCC3)cc2)cn1)NCc1ccccc1 [KX2-391] | 0.85 | 0.597 | 0.429 | 0.365 | 0.786 | 0.627 | 0.497 | 0.478
